The values that follow come from patent US7879795B2, “Enhancement of tigecycline potency using efflux pump inhibitors” (Mpex Pharmaceuticals, Inc., priority 2004, dated 2011).

Series [1] deals with strain PAM1723 of P. aeruginosa. The format is in vitro ADME. To be noted: in words. As to the method:
Stability of compounds was also evaluated using a bioassay. The test compound at 320 μg/ml was treated with rabbit kidney supernatant for 0, 0.5, 1 and 2 hours.

A short description of series [2]: Acute toxicity, minimal lethal dose after IV bolus in mice. In kind it is in vivo, mouse. The conditions noted are these: IV bolus into tail vein, lethal for at least one of three mice. As to the method:
Acute toxicity was measured as minimal lethal dose (MLD). MLD is defined as a minimal concentration of a compound that has lethal effect for at least one mouse from the group of three mice after IV bolus injection into the mouse tail vein.

Series [3] can be described thus: Stability in human kidney tissue preparations. The conditions noted are these: in words. In kind it is in vitro ADME. The source says:
The pattern of in vitro stability of compound 3 (stable in serum but unstable in tissues) observed in rodents was also reproduced using human kidney tissues or serum. FIG. 7 compares the in vitro stability of compounds 1 and 3 in human kidney tissue preparations.
FIG. 8 depicts formation of the metabolite, compound 67, in human kidney tissue. Concomitant with the disappearance of compound 3, generation of the expected metabolite of the presumed intralysosomal degradation, compound 67, was detected using human kidney.

The subject of series [4] is Strain S41, a clinical isolate. The series is described as follows: microbe, parasite or virus in culture. To be noted: strain S41. The format is cell-based, P. aeruginosa.
The subject of a further series is Enterobacter cloacae 25. The series is described as follows: Antibiotic MIC with fixed concentration of compound 21, Enterobacter cloacae 25. The format is cell-based.
For series [5], the system named is PAM 1032, nalB, MexAB-OprM over-expressed. The series is described as follows: microbe, parasite or virus in culture. Also on record: Tigecycline MIC in the presence of Compound 21: unit not given here. In kind it is cell-based, P. aeruginosa. To be noted: PAM 1032. As to the method:
(§1) The ability of compound 21 to increase susceptibility to tigecycline was also assessed. The tigecycline potentiating activity of compound 21 was assessed by the checkerboard assay (Antimicrobial Combinations, Antibiotics in Laboratory Medicine, ed. Victor Lorian, M.D., Fourth edition, 1996, pp 333-338, which is incorporated herein by reference in its entirety) using a broth micro-dilution method performed as recommended by the CSLI (Clinical and Laboratory Standards Institute, formerly NCCLS) guidelines (National Committee for Clinical Laboratory Standards 2003. Methods for Dilution Antimicrobial Susceptibility Tests for Bacteria That Grow Aerobically—Sixth Edition; Approved Standard. NCCLS Document M7-A6, Vol 20 No. 2). In this assay, multiple dilutions of the two drugs, compound 21 and tigecycline, were tested alone and in combination, at concentrations equal to, above and below their respective minimal inhibitory concentrations (MICs). […] The stock solution was further diluted in Mueller Hinton Broth (MHB). Stock solutions were stored at −80° C.
(§2) The checkerboard assay was performed in microtiter plates. Tigecycline was diluted in the x axis, each column containing a single concentration of tigecycline. Compound 21 was diluted in the y axis, each row containing an equal concentration of the EPI. […] The assay was performed in MHB with a final bacterial inoculum of 5×10^5 CFU/ml (from an early-log phase culture). The microtiter plates were incubated for 20 hours at 35° C. and then read using a microtiter plate reader (Molecular Devices) at 650 nm, as well as by visual observation using a microtiter plate-reading mirror.
P. aeruginosa strain PAM 1032 was grown in Mueller-Hinton Broth (MHB) at 35° C. under constant aeration. After 20 hours, the inoculum was sub-cultured into fresh MHB and allowed to regrow at 35° C., under constant aeration, for 4 hours. The inoculum was adjusted to ca. 4×10^7 CFU/ml by correlation of absorbance at 600 nm with predetermined plate counts. The inoculum was then diluted 2-fold in 14% hog-gastric mucin (Sigma, St. Louis, Mo.) for a final inoculum concentration of 2×10^7 CFU/ml. […] At 0 and 2 hours following infection, tigecycline was administered by the subcutaneous route and compound 21 was administered by the intraperitoneal route.

The subject of a further series is PAM 1020, wt. Put plainly: Tigecycline potentiation checkerboard assay, PAM 1020. Also on record: Tigecycline MIC in the presence of Compound 21: unit not given here. The format is cell-based, P. aeruginosa. To be noted: PAM 1020. As to the method: as §1, §2
In a further series the test system is Klebsiella pneumonia 73. Put plainly: Antibiotic MIC with fixed concentration of compound 21, Klebsiella pneumonia 73. The format is cell-based. As to the method: (§3) To further characterize the clinical potential of tigecycline/EPI combinations, the microbiological activity of tigecycline in combination with compound 21 was investigated using clinical isolates of P. aeruginosa and other gram-negative bacteria. In several experiments, described below, the impact of a fixed concentration of compound 21 (2.5 μg/ml) on susceptibility to tigecycline was determined.
(§4) The impact of compound 21 on the activity of tigecycline against representative members of Enterobacteriacaea was also tested.

Series [6] has as its system Burkholderia, Proteus, Morganella, Providencia and Serratia. The series is described as follows: Potentiation of tigecycline against other gram-negative clinical isolates. To be noted: in words. The format is cell-based. As to the method:
as §3
Strains with decreased susceptibility to tigecycline were also present among representatives of Burkholderia, Proteus, Morganella, Providencia and Serratia. […] While not being bound by any particular theory, it is probable that the lack of potentiation by compound 21 is due to limited uptake of this particular EPI across the outer membrane of these bacteria, rather than the absence of efflux pumps.

Series [7] concerns strains of Klebsiella, Enterobacter and Citrobacter. The series is described as follows: Potentiation of tigecycline against enterobacteria with decreased susceptibility to tigecycline. The format is cell-based. The conditions noted are these: in words. As to the method:
as §3, §4

The subject of series [8] is Enterobacteriaceae, Acinetobacter, Burkholderia, Stenotrphomonas, Staphylococcus. To be noted: Example 86, written in present tense.
Series [9] relates to 110 clinical isolates of P. aeruginosa. Put plainly: Tigecycline susceptibility of P. aeruginosa clinical isolates with fixed concentration of compound 21. The format is cell-based. As to the method:
as §3
Results from an experiment using 110 clinical isolates of P. aeruginosa are presented in FIG. 1, as the distribution of tigecycline MICs with or without the EPI potentiator.

The mark [10] stands for this setting: azithromycin MIC with compound 21.
[11] abbreviates: levofloxacin MIC with compound 21 at […].
Where [12] appears, read: tigecycline MIC with compound 21 at […].
[13] abbreviates: tigecycline with compound 21 at fixed […], 110 clinical isolates.

Take `NCCC[C@H](N)C(=O)N[C@H](CCc1ccccc1)C(=O)Nc1cnc2ccccc2c1` [Compound 3, 2-(S),5-Diamino-pentanoic acid [3-phenyl-1-(R)-(quinolin-3-ylcarbamoyl)-propyl]-amide]: the “change of EPI activity after treatment with supernatant of rabbit kidney homogenate” value in series [1] was “time-dependent reduction of the EPI activity”. The “MLD (minimal lethal dose)” value in series [2] amounted to 25 mg/kg. In addition, in series [3], the “degradation in homogenates prepared from frozen cadaverous human kidney” value is on record as “Time-dependent degradation” and the “pH dependence of degradation in human kidney homogenates” value is reported as “stronger at lower pH”.
With `NCCC[C@H](N)C(=O)N[C@H](Cc1ccc(C(F)(F)F)cc1)C(=O)Nc1cnc2ccccc2c1` [Compound 21, 2-(S),5-Diamino-pentanoic acid [1-(R)-(quinolin-3-ylcarbamoyl)-2-(4-trifluoromethyl-phenyl)-ethyl]amide], the “Tigecycline MIC with Compound 21 at 5 μg/ml” value in [4] came to 0.125 µg/mL. In addition, in series [4] (4× MIC), the “Mutation Frequency on Tigecycline at 4 μg/ml with Compound 21 at 10 μg/ml” value is <1.5 × 10^−10. For the same compound, the “reduction of the frequency of emergence of tigecycline resistance” value in [4] (compound 21 at 10 μg/ml) is listed as “at least three orders of magnitude”. Besides, the “Azi + EPI (MIC)” value in the series on Enterobacter cloacae 25 (setting [10]) and in the series with Klebsiella pneumonia 73 (setting [10]) was “≦0.125” throughout. Besides, the “Levo + EPI at […] (MIC)” value with Enterobacter cloacae 25 (setting [11]) is given as 0.5; with Klebsiella pneumonia 73 (setting [11]), 4. In addition, the “Tig + EPI at […] (MIC)” value was 0.5 in the series on Enterobacter cloacae 25 (setting [12]) and 0.125 with Klebsiella pneumonia 73 (setting [12]). Also, the “Tigecycline MIC in the presence of Compound 21” value (“Tigecycline MIC in the presence” for short) in series [5] (Compound 21 0.625 μg/ml) is 4; in series [5] (Compound 21 1.25 μg/ml) it was 2; in [5] (Compound 21 5 μg/ml), 0.5; in series [5] (Compound 21 10 μg/ml) it was 0.5; in [5] (Compound 21 20 μg/ml), 0.5; in series [5] (Compound 21 40 μg/ml), 0.5. Moreover, the “Tigecycline MIC in the presence” value in series [5] (Compound 21 […]) turned out to be 0.5; in the series on PAM 1020, wt (Compound 21 0.625 μg/ml), 2; in the series with PAM 1020, wt (Compound 21 1.25 μg/ml) it was 1; in the series on PAM 1020, wt (Compound 21 5 μg/ml), 0.25; in the series on PAM 1020, wt (Compound 21 10 μg/ml), 0.25; in the series with PAM 1020, wt (Compound 21 20 μg/ml) it was 0.25. Besides, the “Tigecycline MIC in the presence” value in the series with PAM 1020, wt (Compound 21 40 μg/ml) came to 0.25; in the series with PAM 1020, wt (Compound 21 […]), 0.5. For the same compound, the “effect on susceptibility to tigecycline” value in series [6] is reported as “did not decreased susceptibility to tigecycline”. In series [7], the “potentiation of tigecycline against strains with decreased susceptibility” value was “potentiated tigecycline”. The “effect on tigecycline resistance and emergence of resistance” value in [8] is “reduces tigecycline resistance and emergence of resistance”. Besides, the “reduction of tigecycline MIC50 and MIC90 of the population” value in series [9] (compound 21 at […]) turned out to be 8 fold. Also, the “strains that responded to compound 21” value in series [9] (individual strains tested) is reported as 98%. Moreover, the MIC50, Tigecycline + EPI in series [9] (setting [13]) came out at 0.25 µg/mL. For the same compound, the MIC90, Tigecycline + EPI in [9] (setting [13]) is 1 µg/mL.
